Measured values published in ChEMBL document CHEMBL1134967, “Identification of novel inhibitors of fibroblast growth factor (FGF-2) binding to heparin and endothelial cell survival from a structurally diverse carbohybrid library” (Bioorg Med Chem Lett, 2002).
Where “and” joins values, the source holds several entries; their conditions need not be identical. Identical values can stand only once.

Key:
[1] = target: T1, Fibroblast growth factor 2 (Homo sapiens, UniProt P09038); assay: Inhibition of Fibroblast growth factor 2 binding to heparin-albumin in ELISA
[2] = target: T1, Fibroblast growth factor 2; assay: 25% inhibition of FGF-2 binding to heparin-albumin by ELISA
[3] = target: T1, Fibroblast growth factor 2; assay: 23% inhibition of FGF-2 binding to heparin-albumin by ELISA
[4] = target: T1, Fibroblast growth factor 2; assay: 24% inhibition of FGF-2 binding to heparin-albumin by ELISA

T1 sequence (P09038 143-288 limits assumed): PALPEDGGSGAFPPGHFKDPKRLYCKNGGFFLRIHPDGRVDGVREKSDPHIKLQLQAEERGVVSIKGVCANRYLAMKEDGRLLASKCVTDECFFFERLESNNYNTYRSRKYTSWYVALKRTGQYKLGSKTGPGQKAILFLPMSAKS

Imax [1]	IC50 [2]	IC50 [3]	IC50 [4]	SMILES
45%				O=C(NC1OC(C(=O)O)C(O)C(O)C1O)c1ccncc1 (stereo not given)
25%	< 313 nM and 340 nM			O=C(O)[C@@H]1O[C@@H](OCCN2C(=O)CCC2=O)[C@@H](O)[C@@H](O)[C@@H]1O
23%		150 nM		COc1cc(C(=O)NC2OC(C(=O)O)C(O)C(O)C2O)cc(OC)c1OC (stereo not given)
39%	33000 nM			O=C(NC1OC(C(=O)O)C(O)C(O)C1O)c1ccc(F)c(F)c1 (stereo not given)
24%			25.2 nM	O=C(COc1ccc(Cl)cc1Cl)NC1OC(C(=O)O)C(O)C(O)C1O (stereo not given)
40%				O=C(NC1OC(C(=O)O)C(O)C(O)C1O)c1cccs1 (stereo not given)
